Values of other authors as cited in patent US20190290635A1, “METHODS OF TREATING BRAIN CANCER USING AGENTS THAT ALTER ACTIVITY OF A METABOLIC PATHWAY” (Clear Creek Bio, Inc., priority 2018, published 2019).

Legend:
[1] = 650 mg/m^2 brequinar (days 1, 8 and 15) with 75 mg/m^2 cisplatin (day 1); cited from earlier work
[2] = 43 patients; patient with papillary carcinoma of the thyroid; cited from earlier work

| Structure (SMILES) | modification of individual drug pharmacokinetic parameters in combination with cisplatin [1] | tumor response observed [2] |
| --- | --- | --- |
| Cc1c(-c2ccc(-c3ccccc3F)cc2)nc2ccc(F)cc2c1C(=O)O [Brequinar, 6-fluoro-2-(2′-fluoro-1,1′ biphenyl-4-yl)-3-methyl-4-quinoline carboxylic acid] | without significant modifications |  |
| Cc1c(-c2ccc(-c3ccccc3F)cc2)nc2ccc(F)cc2c1C(=O)O [Brequinar sodium] |  | One mixed response |
